Measurements as given in patent US8548786B2, “Neuronal avalanche assay” (priority 2005, dated 2013).
Counter-ions that a name gives are not always drawn.

How the values were obtained:
[1] = tested on: acute slices of rat medial prefrontal cortex (mPFC); assay: Neuronal avalanche (NAS) assay, microelectrode array LFP recording in acute mPFC slices;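 note: 60-electrode array recordings, low-pass filtered at 200 Hz and sampled at 1 kHz, nLFPs detected below −3 SD of electrode noise, avalanches as runs of active bins between silent bins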
Experimental: Continuous extracellular signals v(t) can be recorded between 0.1 Hz and 3000 Hz, low-pass filtered at 200 Hz (Butterfly-filter, Multichannel Systems), digitised at a rate of 1 kHz (Δt=1 ms) and stored. For each electrode k (k=[1, nelec], nelec=60), the electrode noise of v(t) can be estimated by calculating the mean and standard deviation (SD) of v(t) from the total duration of the recording, Ttot, which can range, for example, between 40-60 min. […] Negative LFP peaks (nLFPs) at electrode k can be detected by negative threshold crossing at −3 SD of electrode noise and can be characterized by the time and absolute amplitude of the negative LFP peak, A^k(ti), before v(t) returned to threshold. More precisely, at a given temporal resolution Δt, nLFPs at electrode k can be represented by a vector of length nmax, where nmax is an integer value for which Ttot=nmax·Δt. This vector can contain zeros, except for positions ti=i·Δt, iε[1, . . . , nmax,] with values A^k(ti) in μV.
A neuronal avalanche is a sequence of consecutive time bins of width Δt with at least one nLFP, which is preceded and terminated by at least one time bin with no activity (FIG. 3A). The absence of activity for a period of Δt thus indicates the end of an avalanche. If the decision of whether an avalanche has ended is made too early (Δt too short), avalanches will be terminated prematurely; if the Δt chosen is too long, avalanches will be falsely concatenated. If avalanches did simply propagate like a wave, an approximation for Δt (Δtavg) could be obtained by averaging the time between one nLFP at one electrode and the next nLFP at neighbouring electrodes only. Because nLFPs in avalanches occur in irregular patterns across electrodes on the array, a pair wise approximation can be used in order to assess the average time that is required for nLFPs to propagate between electrodes.
In order to calculate Δtavg, the distribution of time intervals T for successive nLFPs on the array can be obtained. Starting with the first nLFP, e.g. A^k(ti) on electrode k at time ti, the next occurrence of an nLFP on the array can be searched for, e.g. A^l(tj) on electrode l at time tj, and calculated the time interval Tm-Δt^k,l, where m=(tj−ti)/Δt. This process can be repeated for all occurrences of nLFPs on electrode k and for all electrodes. The resulting values can be combined into one density distribution P(TmΔt), which captures how often successive nLFPs occurred with a particular delay m·Δt on the array irrespective of their spatial location. Consequently, the average value of T provides an approximation for Δtavg, the average time to wait before making a decision whether an nLFP propagated on the array. However, this interval distribution is highly skewed, particularly when one compares the last nLFP with the first nLFP in successive avalanches that are separated by long times. In order to exclude time intervals from successive nLFPs that are barely correlated, a cut-off time τmax can be calculated for which the average crosscorrelation function (ccf) for pair wise electrode comparisons Rccf(τ) had decayed to negligible values. The ccf between electrodes k, l (Rccf^k,l(τ)) can be calculated as
Because the exemplary maximal sampling rate was 1 kHz, the actual Δt^avg to calculate avalanches can be taken as the nearest multiple of Δt=1 ms. In short, after Δtavg was calculated for a particular network and experimental condition, the extracellular signals v(t) can be re-sampled at the new temporal resolution of Δtavg. Time and amplitude of nLFP peaks can be extracted as A^k(ti), where ti=i·Δtavg, iε[1, n′max] and Ttot=n′max·Δtavg. Avalanches can be determined on the downsampled data set at bin width Δtavg.
Avalanche sizes can be calculated in two different ways (see also FIG. 3A).

[2] = tested on: organotypic cortex-VTA cultures; assay: γ-oscillations and neuronal avalanches in organotypic cortex-VTA co-cultures; type: cell-based, rat
Experimental: Cortical extracellular neuronal activity was recorded in organotypic cortex-VTA cultures using 8×8 multielectrode arrays (FIG. 17A). The activity in the cortical tissue started as isolated single unit activity, which later formed bursts of multi-unit activity in the form of oscillations (FIG. 17B). […] The appearance of oscillatory activity ranged from closely placed isolated LFPs to frank sinusoidal waves lasting from 50 ms to 500 ms. […] LFP amplitudes varied from −10 μV to −1200 μV (mean=−38.2±3.4 μV) and varied between cultures −10.68±0.53 μV to −223.6±19.25 μV (mean high value).
Organotypic co-cultures were prepared from the frontal cortex (EC) and ventral-tegmental area (VTA) isolated from postnatal day 1-2 (PND) old rats. The VTA slices were cut at a thickness of 500 μm and cortex at 350 μm. The culture was done with cortex placed on multielectrode arrays (Multichannel Systems, Reutlingen, Germany) with electrode diameter of 30 μm and interelectrode distance of 200 μm. Cultivation and recording was done in a sterile chamber on the microelectrode array as described above. The culture was kept within the incubator with the rocking movement (˜0.005 Hz) throughout the recording. Spontaneous extracellular signals were recorded at a sampling frequency of 4 kHz with 1 kHz low pass filtering continuously for an average of 4±1 hrs. The temperature inside incubator was maintained at 35±0.5° C.
Neuronal oscillatory activity was analyzed by calculating the power spectrum from periods of prominent LFP activity, i.e. LFP bursts using a discrete Fast Fourier Transform in Matlab (Mathworks). Periods of prominent LFP activity were identified by negative threshold crossing at −3 SD from electrode noise. When calculating the average power spectrum for an activity period on the array, the duration for selecting activity periods was taken as the average duration of individual oscillatory activity in each recording session. While taking activity regions care was taken to avoid recalculation of spectra from the same time period in same electrode. The power spectrum of noise for each electrode was separately calculated from 20 separate recording regions where no activity was present and the power in the noise was subtracted from that in the signal. The selected signal region was filtered with a Hanning window (a cosine window defined by: w(k+1)=0.5*(1−cos(2*pi*(k/(n−1)))), k=0, 1, 2 . . . n−1) before calculating the power spectrum. The power spectrum of each activity period was calculated and averaged from all the active electrodes in each activity period. Then the power spectrum was averaged over the entire 4 hr recording.
To test the hypothesis, that neuronal avalanches might persist in the presence of oscillatory activity, the signals from all channels were analyzed for LFPs occurring with a peak 3×SD above noise (FIG. 19). This yielded a raster with time of occurrence and peak amplitude of LFPs (FIGS. 19B,C). The data was binned at Δtavg obtained from cross correlation analysis. […] Plotting the probability of occurrence of avalanches of different sizes against avalanches in log-log coordinates of different sizes yielded a curve with slope α=−1.5 (FIGS. 19D,E; mean=−1.53±0.02, n=9).
About 3 μl of the stock solution was added to the ˜600 μl of culture media in the multielectrode array chamber to reach a final concentration of 10 μM. […] The concentration of DMSO in the working solution was limited to 0.01%. Each addition of the drug was followed by 4 hours of continuous recording, after which the culture was washed by replacing the culture medium with 50% of conditioned media (collected from the same culture the day before drug application) and 50% of fresh, unconditioned medium, followed by 4-8 hrs of recording.

[3] = tested on: organotypic cortex cultures; assay: Neuronal avalanche assay in organotypic cortex slice cultures on microelectrode arrays; type: cell-based, rat
Experimental: Organotypic cultures from slices of rat cortex were prepared in accordance with NIH guidelines. Coronal sections from rat brains (Sprague Dawley, Taconic Farms, Md., USA) at postnatal day 0-2 were cut at 350 μm thickness. A coronal slice section containing dorsal or dorsolateral cortex (˜1.5 mm deep and ˜2-3 mm wide) was positioned on a multi-electrode array (Multichannelsystems, Reutlingen, Germany). The array covered ˜50-70% of the cortical tissue with the bottom row aligned to infragranular layers and the upper rows extending beyond layer I. This arrangement allowed for the dorsal expansion of the cortical slice on the multielectrode array, which results from the development of superficial layers during the first weeks postnatal in rat cortex. The slices were attached to the pre-cleaned, poly-D-lysine coated multielectrode array-surface by coagulation with 15 μl chicken plasma and 15 μl of bovine thrombin (Sigma St. Louis, Mo., USA), after which cultures were grown at 35.5° C. in normal atmosphere in a culture medium consisting of 50% Basal Medium Eagle, 25% Hanks Balanced Salt Solution and 25% horse serum, 0.5% glucose, and 0.5 mM L-glutamine (all Gibco, Grand Island, N.Y., USA). Photographs taken at 1-3 DIV and after recording sessions confirmed the position of recording electrodes in the cortical tissue and organotypic cortex slice culture.
A custom-built incubator was used in order to allow for long-term pharmacological experiments and repetitive, sterile recording sessions at different developmental stages under identical recording and culturing conditions. The chamber design and preparation of the multielectrode array for recordings has been described in more detail previously. In short, each multielectrode array consisted of a square glass plate (5×5 cm, 1 mm thickness) with a square array of 60 microelectrodes made of titanium nitride (8×8 grid with the corners missing) at its center (Egert et al., 1998). Titanium nitride electrodes were flat and disk-shaped with a diameter of 30 μm, an inter electrode spacing of 200 μm, and were attached to gold leads that ended at the edge of the glass square and served as contacts for the amplifier head stage. A circular glass well (˜10 mm diameter) with a Teflon cap was centered and cured to the glass plate by Sylgard® functioned as a tight-sealed, sterile culture chamber.
Multielectrode arrays were placed onto storage trays inside the incubator and gently rocked. The temperature inside incubator was maintained at 35±0.5° C. For optimal culture survival and culture growth a rocking trajectory was used that approximated a sinusoidal function (˜400 s cycle time) with brief halts of ˜10 s at the steepest angle before reversing directions. At the points of direction reversal, cultures were exposed to the inner chamber atmosphere. […] After 3 and 27 days in vitro (DIV), […] of mitosis inhibitor was added for 24 hr ([…]; calculated to final concentration; all Sigma). Medium was changed every 3-5 days. No antibiotics were used throughout cultivation and recording periods.
For recordings, individual multielectrode arrays were placed into the recording head stage (MultiChannelSystems, Inc.), which was affixed to a second tray within the incubator and had the exact same motion as the primary storage tray. This allowed recording in culture medium under conditions identical to growth conditions. The exchange between recording and storage location for each multielectrode array took few seconds and was done without interruption of the rocking cycle. Activity occurred spontaneously in organotypic cortex cultures and was recorded up to 5 hrs giving rise to >10,000 avalanches per network.
Overall, negative local field potentials (nLFPs) occurred at 82±5% of the electrodes in the acute slices and 88±5% of the electrodes in cultures. Data was sampled at 1 kHz and low pass filtered at 50 Hz. […]

[4] = tested on: organotypic cortex-VTA cultures; assay: γ-oscillations and neuronal avalanches in organotypic cortex-VTA co-cultures; type: cell-based, rat; remark: listed apart in the source
[5] = similar for each dopamine concentration, + 3 μM NMDA, n=26 slices

CN1CCc2cc(Cl)c(O)cc2[C@@H](c2ccccc2)C1 (racemic) [SCH23390, R(±)-7-chloro-8-hydroxy-3-methyl-1-phenyl-2,3,4,5-tetrahydro-1H-3-benzazepine hydrochloride]
slope αLFP for washout of antagonist ([1]; after washout of 10 μM SCH23390, 30 μM dopamine + 3 μM NMDA): −1.55±0.06 | shift of peak frequency in the high frequency band from its original value ([2]; SCH23390 10 μM): 59±1% | reduction of power of dominant frequencies between 40-120 Hz ([2]; SCH23390 10 μM, n=5): more than 50% | slope α of avalanche size distribution ([2]; SCH23390 10 μM, n=5): −1.60±0.04

CN1CCN(C2=Nc3cc(Cl)ccc3Nc3ccccc32)CC1 [Clozapine, clozapine]
network state of induced avalanche dynamics ([1]; clozapine 100 nM): epileptic | slope αele of avalanche size distribution ([1]; clozapine 100 nM): −2.07±0.08 | ΔPmax (likelihood of large avalanches beyond linear regression) ([1]; clozapine 100 nM): 0.006 | total duration of induced LFP activity ([1]; clozapine 100 nM bath-applied): ~40 min | initial slope αLFP of avalanche size distribution ([1]; clozapine 100 nM, Δtavg=1 ms, range 5-60 μV): −2.00±0.13

O=[N+]([O-])c1cc2nc(O)c(O)nc2cc1[N+](=O)[O-] [DNQX]
slope α of avalanche size distribution ([3]; DNQX 3 μM bath-applied, 6 cortical cultures, control −1.5): ~−2

CN[C@H](CC(=O)O)C(=O)O [NMDA, N-Methyl-D-Aspartate]
nLFP and avalanche activity induced by NMDA alone ([1]; 3 μM NMDA alone in the presence of 10 μM SCH23390, n=7): negligible nLFP and avalanche activity

CN1[C@@H]2CC[C@H]1C[C@@H](OC(=O)C(CO)c1ccccc1)C2 (stereo partly drawn) [atropine]
neuronal avalanche induction with muscarinergic receptors blocked ([1]; atropine 10 μM + 3 μM NMDA + 3 μM SKF38393): did not block neuronal avalanche induction | power law slope αLFP with muscarinergic receptors blocked ([1]; atropine 10 μM + 3 μM NMDA + 3 μM SKF38393, n=6): −1.696±0.045

NCCc1ccc(O)c(O)c1 [dopamine]
maximal area sele within the power law regime ([1]; 30 μM dopamine + 3 μM NMDA): ~18 electrodes | optimal bin width Δtavg ([1]; 30 μM dopamine + 3 μM NMDA): 2.7 ± 0.2 ms | slope αLFP of avalanche size distribution (summed nLFP amplitudes) ([1]; 30 μM dopamine + 3 μM NMDA bath-applied, sLFP=6-300 μV): −1.50±0.03 | τmax for which Rccf dropped below 10^−4 ([1]; 30 μM dopamine + 3 μM NMDA, all n=6 slices): 60 ms | cortical layer localisation of induced avalanche activity ([1]; 30 μM dopamine + 3 μM NMDA, cortical depth 200-900 μm): strongest in superficial layers II/III | propagation velocity for nLFPs on the array ([1]; 30 μM dopamine + 3 μM NMDA, inter-electrode distance 200 μm): ~74 mm/s | slope αele of avalanche size distribution (number of active electrodes) ([1]; 30 μM dopamine + 3 μM NMDA, sele=1-18 electrodes): −1.47±0.03 | increase in likelihood of family recurrence beyond chance level ([1]; 30 μM dopamine in the presence of 3 μM NMDA): ~500% | Δtavg, average for all dopamine concentrations ([1]; all dopamine concentrations tested + 3 μM NMDA, n=26 experiments): 2.7 ± 0.1 ms | mean nLFP peak, rate of nLFPs per electrode and total activity Atot, dependence on dopamine concentration ([1]; dopamine + 3 μM NMDA, inverted-U profile): maximal at moderate concentration of dopamine (30 μM) | slope α of cluster size distribution ([1]; dopamine concentrations lower or higher than 30 μM, + 3 μM NMDA): ~−2 | duration of spontaneous activity [1, 5]: 43 ± 3 min | number of active electrodes [1, 5]: 33±4 electrodes

CCN1CCCC1CNC(=O)c1cc(S(N)(=O)=O)ccc1OC (stereo not drawn) [sulpiride]
change in γ frequency ([2]; sulpiride 10 μM): without a change in frequency | change of power of γ-activity ([2]; sulpiride 10 μM, n=5): doubled | slope α of avalanche size distribution ([2]; sulpiride 10 μM, n=5): −1.37±0.02

picrotoxin
nLFP and avalanche activity after adding GABAA antagonist ([1]; 10 μM picrotoxin added to activity sustained by 30 μM dopamine + 3 μM NMDA): ceased | maximal time difference between correlated electrodes τmax ([1]; picrotoxin alone 10 μM): 30.5±7.2 | Δtavg ([1]; picrotoxin alone 10 μM): 2.3±0.2 | avalanche rate ([1]; picrotoxin alone 10 μM, n=6): 0.18±0.02 Hz | duration of spontaneous activity ([1]; picrotoxin alone 10 μM, n=6): 28 ± 2 min | nLFP rate ([1]; picrotoxin alone 10 μM, n=6): 0.01±0.001 Hz | total activity Atot ([1]; picrotoxin alone 10 μM, n=6): 5033±719 μV | initial slope αLFP of disinhibited activity ([1]; picrotoxin alone 10 μM, sLFP=15-85): −1.9±0.08 | initial slope αele of disinhibited activity ([1]; picrotoxin alone 10 μM, sele=1-5): −1.97±0.02 | spontaneous avalanche induction with co-applied GABAA antagonist ([1]; picrotoxin co-applied with 3 μM NMDA and 3 μM SKF38393, n=6): prevented spontaneous avalanches induction altogether | shape of avalanche size distribution ([4]; picrotoxin 5 μM): almost bimodal | reduction of γ-oscillations ([4]; picrotoxin 5 μM bath-applied): more than 50% | initial slope α of avalanche size distribution ([3]; picrotoxin 3 μM (FIG. 24C legend)): ~−2 | over-representation of large avalanches, epileptic vs sub-critical state ([3]; picrotoxin 3 μM vs DNQX 3 μM): ~10 times | decrease in average rate of spontaneous nLFPs ([3]; picrotoxin 5 μM, N=4 cultures): 80±23% | increase of deviations in nLFP waveforms relative to initial nLFP ([3]; picrotoxin 5 μM, first time step): ~3.5 fold | probability of nLFP being larger than nLFP in the preceding time step ([3]; picrotoxin 5 μM, normal conditions 0.5): ~0.58 | increase of deviations in nLFP waveforms relative to initial nLFP ([3]; picrotoxin 5 μM, within 8 time steps): ~6 fold | initial slope α of avalanche size distribution ([3]; picrotoxin 2-3 μM): −1.8 | shape of avalanche size distribution ([3]; picrotoxin 2-3 μM): bimodal distribution | average burst duration in the network ([2]; picrotoxin, n=3 cultures): increases the average burst duration | power in the δ/θ-frequency range ([2]; picrotoxin, single culture): increases the power in the δ/θ-frequency range
